Measured values as given in patent US20260130933A1, “PHARMACEUTICAL COMPOSITION FOR PREVENTION OR TREATMENT OF NEPHROPATHY AND/OR DIABETES MELLITUS, COMPRISING ENAVOGLIFLOZIN” (DAEWOONG PHARMACEUTICAL CO., LTD., priority 2022, published 2026).

Test: Example 1: phase 3 trial, enavogliflozin 0.3 mg once a day as monotherapy vs placebo for 24 weeks in patients with type 2 diabetes (HbA1c, FPG, C-peptide, body weight, lipids, blood pressure, HOMA, UACR, UGCR, adiponectin, leptin, safety)
Type: in vivo, human
Description: When a subject voluntarily gave written consent to participate in this clinical trial, a screening test was conducted. […] However, when the administration of a hypoglycemic agent was interrupted before the clinical trial Visit 1 (screening), at least an 8-week washout period, including the discontinuation period, was required, and during this period, a stable diet and exercise program was followed. Naïve patients were screened without a separate washout period, and the criteria for naïve patients were defined as patients who had not been administered hypoglycemic agents within 24 weeks prior to the date of obtaining written consent. […] In addition, they were instructed to maintain regular exercise and dietary control starting from 8 weeks prior to screening without changing their daily life patterns during the clinical trial period.

Structure (SMILES): OC[C@H]1O[C@@H](c2cc(Cc3ccc(C4CC4)cc3)c(Cl)c3c2CCO3)[C@H](O)[C@@H](O)[C@@H]1O [Enavogliflozin, (2S,3R,4R,5S,6R)-2-(7-chloro-6 (4-cyclopropylbenzyl)-2,3-dihydrobenzofuran-4-yl)-6-(hydroxymethyl)tetrahydro-2H-pyran-3,4,5-triol]
- HbA1c, Mean (SD) (week 18): 6.88(0.54) %
- LDL-C change from baseline, LS mean (week 18): -0.32 mg/dL
- LDL-C change from baseline, Mean (week 18): 1.69 mg/dL
- LDL-C, Mean (week 18): 97.16 mg/dL
- Subjects achieving HbA1c target of <6.5% (week 18): 24(29.27) %
- Subjects achieving HbA1c target of <7% (week 18): 47(57.32) %
- Subjects achieving therapeutic glycemic response (HbA1c change >0.5% or HbA1c<7%) (week 18): 60(73.17) %
- Systolic blood pressure, Mean (week 18): 121.63 mmHg
- body weight change from baseline, LS mean (week 18): -3.42 kg
- body weight change from baseline, Mean (week 18): -3.44 kg
- diastolic blood pressure change from baseline, LS mean (week 18): −4.09 mmHg
- diastolic blood pressure change from baseline, Mean (week 18): −3.63 mmHg
- fasting C-peptide, Mean (SD) (week 18): 0.65 ng/mL
- systolic blood pressure change from baseline, LS mean (week 18): −6.56 mmHg
- systolic blood pressure change from baseline, Mean (week 18): −6.22 mmHg
- total cholesterol change from baseline, LS mean (week 18): 6.45 mg/dL
- total cholesterol change from baseline, Mean (week 18): 8.40 mg/dL
- total cholesterol, Mean (week 18): 169.82 mg/dL
- triglycerides change from baseline, LS mean (week 18): -8.82 mg/dL
- triglycerides change from baseline, Mean (week 18): -4.14 mg/dL
- triglycerides, Mean (week 18): 113.30 mg/dL
- FPG change from baseline, LS mean difference (week 18, vs placebo): -33.40 mg/dL
- HDL-C change from baseline, LS mean difference (week 18, vs placebo): 2.69 mg/dL
- HOMA-IR change from baseline, LS mean difference (week 18, vs placebo): −1.49
- HOMA-β change from baseline, LS mean difference (week 18, vs placebo): 22.40
- HbA1c change from baseline, LS mean difference (week 18, vs placebo): −0.79 % p
- LDL-C change from baseline, LS mean difference (week 18, vs placebo): -2.35 mg/dL
- Odds ratio for achieving HbA1c<6.5% (week 18, vs placebo): 5.58
- Odds ratio for achieving HbA1c<7% (week 18, vs placebo): 4.85
- Odds ratio for achieving therapeutic response (week 18, vs placebo): 7.45
- UACR change from baseline, LS mean difference (week 18, vs placebo): -13.39 g/kg
- UGCR change from baseline, LS mean difference (week 18, vs placebo): 47.66 mg/mg
- adiponectin change from baseline, LS mean difference (week 18, vs placebo): 1.04 µg/mL
- body weight change from baseline, LS mean difference (week 18, vs placebo): -2.37 kg
- diastolic blood pressure change from baseline, LS mean difference (week 18, vs placebo): −1.90 mmHg
- fasting C-peptide change from baseline, LS mean difference (week 18, vs placebo): -0.11 ng/mL
- leptin change from baseline, LS mean difference (week 18, vs placebo): -2.36 ng/mL
- systolic blood pressure change from baseline, LS mean difference (week 18, vs placebo): −3.36 mmHg
- total cholesterol change from baseline, LS mean difference (week 18, vs placebo): -0.99 mg/dL
- triglycerides change from baseline, LS mean difference (week 18, vs placebo): -17.74 mg/dL
- Body weight, Mean (week 24): 65.28 kg
- Diastolic blood pressure, Mean (week 24): 72.68 mmHg
- FPG change from baseline, LS mean (SE) (week 24): −31.66(3.68) mg/dL
- FPG change from baseline, Mean (SD) (week 24): −30.00(20.73) mg/dL
- FPG, Mean (SD) (week 24): 111.00(14.56) mg/dL
- HDL-C change from baseline, LS mean (week 24): 4.39 mg/dL
- HDL-C change from baseline, Mean (week 24): 4.13 mg/dL
- HDL-C, Mean (week 24): 56.05 mg/dL
- HbA1c change from baseline, LS mean (SE) (week 24): −0.88(0.10) % p
- HbA1c change from baseline, Mean (SD) (week 24): −0.84(0.66) % p
- HbA1c, Mean (SD) (week 24): 6.80(0.59) %
- LDL-C change from baseline, LS mean (week 24): -2.92 mg/dL
- LDL-C change from baseline, Mean (week 24): -1.03 mg/dL
- LDL-C, Mean (week 24): 94.44 mg/dL
- Subjects achieving HbA1c target of <6.5% (week 24): 29(35.37) %
- Subjects achieving HbA1c target of <7% (week 24): 58(70.73) %
- Subjects achieving therapeutic glycemic response (HbA1c change >0.5% or HbA1c<7%) (week 24): 68(82.93) %
- Systolic blood pressure, Mean (week 24): 121.29 mmHg
- body weight change from baseline, LS mean (week 24): -3.47 kg
- body weight change from baseline, Mean (week 24): -3.48 kg
- diastolic blood pressure change from baseline, LS mean (week 24): −3.92 mmHg
- diastolic blood pressure change from baseline, Mean (week 24): −3.55 mmHg
- fasting C-peptide, Mean (SD) (week 24): 0.64 ng/mL
- systolic blood pressure change from baseline, LS mean (week 24): −7.27 mmHg
- systolic blood pressure change from baseline, Mean (week 24): −6.55 mmHg
- total cholesterol change from baseline, LS mean (week 24): 4.84 mg/dL
- total cholesterol change from baseline, Mean (week 24): 6.58 mg/dL
- total cholesterol, Mean (week 24): 168.00 mg/dL
- triglycerides change from baseline, LS mean (week 24): -0.08 mg/dL
- triglycerides change from baseline, Mean (week 24): 1.95 mg/dL
- triglycerides, Mean (week 24): 119.39 mg/dL
- FPG change from baseline, LS mean difference (week 24, vs placebo): -40.08 mg/dL
- HDL-C change from baseline, LS mean difference (week 24, vs placebo): 4.05 mg/dL
- HOMA-IR change from baseline, LS mean difference (week 24, vs placebo): −1.94
- HOMA-β change from baseline, LS mean difference (week 24, vs placebo): 5.88
- HbA1c change from baseline, LS mean difference (week 24, vs placebo): −0.99 % p
- LDL-C change from baseline, LS mean difference (week 24, vs placebo): -6.91 mg/dL
- Odds ratio for achieving HbA1c<6.5% (week 24, vs placebo): 12.10
- Odds ratio for achieving HbA1c<7% (week 24, vs placebo): 9.08
- Odds ratio for achieving therapeutic response (week 24, vs placebo): 12.98
- UACR change from baseline, LS mean difference (week 24, vs placebo): -13.92 g/kg
- UGCR change from baseline, LS mean difference (week 24, vs placebo): 47.36 mg/mg
- adiponectin change from baseline, LS mean difference (week 24, vs placebo): 0.98 µg/mL
- body weight change from baseline, LS mean difference (week 24, vs placebo): -2.47 kg
- diastolic blood pressure change from baseline, LS mean difference (week 24, vs placebo): −3.12 mmHg
- fasting C-peptide change from baseline, LS mean difference (week 24, vs placebo): -0.13 ng/mL
- leptin change from baseline, LS mean difference (week 24, vs placebo): -2.99 ng/mL
- systolic blood pressure change from baseline, LS mean difference (week 24, vs placebo): −5.75 mmHg
- total cholesterol change from baseline, LS mean difference (week 24, vs placebo): -6.40 mg/dL
- triglycerides change from baseline, LS mean difference (week 24, vs placebo): -28.56 mg/dL
